# Residue numbers refer to the chain shown, from its start.
# Assays:
# Assay type in all cases: cell-based
# [1] = test system: untransfected MDCKII cells; experiment: YFP-halide transport assay (I- influx), untransfected MDCKII controls; details: compound addition for 24 h, YFP quenching, FIG. 4B
# Description: (§1) Human hiPSC-RPE or MDCKII cells were transduced via lentivirus particles which were produced by co-transfecting HEK293T cells with the yellow fluorescence protein (YFPH148Q/I152L)-pLJM1 and helper plasmids pMD2.G and psPAX2 using the Ca^2+ phospate transfection method. After six weeks of cultivation in 96-well black microtiter plates, cells were incubated with 100 mM Cl^− containing solution and basal YFP fluorescence was measured in a Tecan microplate reader. Subsequently Cl^− was replaced with equimolar I^− and decrease of YFP fluorescence intensity was monitored for another 2 min in 10 sec intervals.
# (§2) To analyze BEST1-mediated anion transport in the cell lines generated in the previous examples, a well-established halide transport assay (Galietta et al., 2001) was adapted. […] Addition of I— leads to specific YFP quenching over time and changes of fluorescence intensities can be monitored on a plate reader. MDCKII cells were incubated with 100 mM Cl— containing solution and steady state YFP fluorescence signal intensities were measured after 6 minutes. Subsequently, Cl— was replaced by equimolar I— and anion permeability was monitored by decreasing YFP intensities as a result of BEST1-mediated I— influx in a time course up to 2 minutes (FIG. 2B). […]
# BEST-Y227N = biological target: T1, BEST-Y227N (Homo sapiens, UniProt O76090, Y227N); experiment: YFP-halide transport assay (I- influx), MDCKII cells expressing mutant BEST-Y227N; details: various concentrations from 2 μM to 20 μM, 24 h, FIG. 4C
# T1 construct: expressed in transfected cells
# T1 sequence (O76090 1-585 Y227N): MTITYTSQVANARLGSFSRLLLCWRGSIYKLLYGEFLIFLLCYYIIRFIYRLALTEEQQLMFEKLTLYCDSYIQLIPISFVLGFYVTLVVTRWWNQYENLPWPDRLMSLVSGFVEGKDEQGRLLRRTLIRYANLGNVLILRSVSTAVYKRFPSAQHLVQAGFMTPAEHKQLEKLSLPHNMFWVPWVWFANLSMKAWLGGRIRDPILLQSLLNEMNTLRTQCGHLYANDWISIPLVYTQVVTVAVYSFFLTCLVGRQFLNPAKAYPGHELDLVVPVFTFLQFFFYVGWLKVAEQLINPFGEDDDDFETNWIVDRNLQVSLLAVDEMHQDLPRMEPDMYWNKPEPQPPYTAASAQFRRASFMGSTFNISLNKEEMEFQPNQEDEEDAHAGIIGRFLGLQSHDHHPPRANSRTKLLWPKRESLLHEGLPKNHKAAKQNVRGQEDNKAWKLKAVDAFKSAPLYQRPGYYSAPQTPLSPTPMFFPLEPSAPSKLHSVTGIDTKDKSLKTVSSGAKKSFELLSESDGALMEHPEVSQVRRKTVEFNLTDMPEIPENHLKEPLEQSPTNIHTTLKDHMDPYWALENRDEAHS
# BEST1 wildtype = biological target: T2, BEST1 wildtype (Homo sapiens, UniProt O76090); experiment: YFP-halide transport assay (I- influx), MDCKII cells expressing BEST1 wildtype; details: MDCKII BEST1 wildtype cell lines; compound addition for 24 h; YFP quenching; FIG. 4B
# T2 construct: expressed in transfected cells
# T2 sequence (O76090 1-585): T1 sequence (O76090 1-585 Y227N) with N227Y
# Description: as §1, §2
compound,measurement,setting,value
"COc1ccc(-c2coc3cc(OC(C)=O)cc(OC(C)=O)c3c2=O)cc1 [Biochanin A diacetate, 3-(4-Methoxyphenyl)-4oxo-4H-chromene-5,7-diyl diacetate]",effect on kinetics of I- influx (anion transport activity),[1],no or only little effect
same,anion transport activity (I- influx),BEST-Y227N,moderately increased
same,effect on kinetics of I- influx (anion transport activity),BEST1 wildtype,no or only little effect

# From patent publication US12478605B2, “Biochanin a derivatives for treatment of BEST1-related retinopathies” (Universität Regensburg, priority 2020, dated 2025)
